Columns and labels:
[1] = test system: Androgen-induced PSA-luciferase; test: Androgen-induced PSA (6.1 kb)-luciferase reporter assay in LNCaP cells; assay type: cell-based; conditions: Homo sapiens, R1881 1 nM, 24 h
Protocol: To determine the IC50, treatments were normalized to the maximum activity with androgen-induction (in the absence of test compounds, vehicle only) (Table 1).
Luciferase Assay: Lysates were thawed on ice then collected into V-bottom 96-well tissue culture plates. Lysates were centrifuged at 4° C. for 5 minutes at 4000 rpm. To measure luminescence of LNCaP cell lysates the Firefly Luciferase Assay System (Promega) was employed, according to manufacturer's protocol.
Comparisons between treatment and control groups were compared using Two-Way ANOVA with post-hoc Dunnett's and Tukey's tests. Differences were considered statistically significant at P values less than 0.05. Densitometric quantification of relative AR levels was determined by Image.

[2] = test system: AR full-length and AR V7 driven genes in LNCaP95 cells; test: mRNA expression of androgen responsive genes in LNCaP95 (+R1881) cells (NanoString Androgen Receptor/Prostate Cancer gene panel)
Protocol: Relative mRNA expression in LNCaP95 (+R1881) was measured for Canonical AR target genes (FIG. 9A) and AR V7-activated genes (FIG. 9B).
Data shown in FIGS. 8A-8B and 9A-9B and Table 5 were generated using NanoString Androgen Receptor/Prostate Cancer gene panel.

VCaP tumors = test: VCaP xenograft model, castrated male SCID Beige mice; assay type: in vivo; conditions: oral, castrated male SCID Beige mice (FIGS. 1-4)
Protocol: Tumor growth was measured in male SCID Beige mice bearing VCaP tumors. […] Individual tumor volume change from baseline measured on day 17 of the experiment (FIGS. 2A-2B). Serum prostate-specific antigen (PSA) was measured in mice at the end of each treatment (FIG. 3). Body weight of the mice were captured biweekly in the animals and normalized to baseline (FIG. 4).

[3] = test system: androgen responsive genes in LNCaP cells; test: mRNA expression of androgen responsive genes in LNCaP cells (NanoString Androgen Receptor/Prostate Cancer gene panel)

**Q.** For `CC(C)(c1ccc(OCc2ocnc2S(C)(=O)=O)cc1)c1cc(Cl)c(OCCCl)c(Cl)c1` [Compound A13, 5-((4-(2-(3,5-dichloro-4-(2-chloroethoxy)phenyl)propan-2-yl)phenoxy)methyl)-4-(methylsulfonyl)oxazole], which IC50 [1] is on record?
**A.** 0.592 µM

**Q.** Which IC50 [1] does the source give for `CC(C)(c1ccc(OCc2ocnc2S(C)(=O)=O)cc1)c1cc(Cl)c(OCCCl)c(C#N)c1` [Compound A28] here?
**A.** 0.4 µM

**Q.** How did the IC50 [1] turn out when `Cc1cc(C(C)(C)c2ccc(OCc3ocnc3S(C)(=O)=O)cc2)cc(C#N)c1OCCCl` [Compound A29] was run?
**A.** 0.466 µM

**Q.** With `CC(Oc1ccc(C(C)(C)c2cc(Cl)c(OCCCl)c(Cl)c2)cc1)c1ocnc1S(C)(=O)=O` (centres unmarked) [Compound A35, 5-(1-(4-(2-(3,5-dichloro-4-(2-chloroethoxy)phenyl)propan-2-yl)phenoxy)ethyl)-4-(methylsulfonyl)oxazole] as the compound, how does the IC50 [1] read?
**A.** 0.515 µM

**Q.** Which IC50 [1] does the source give for `CC(C)(c1ccc(OCc2coc(NS(C)(=O)=O)n2)cc1)c1cc(Cl)c(OCCCl)c(Cl)c1` [Compound A38, N-(4-((4-(2-(3,5-dichloro-4-(2-chloroethoxy)phenyl)propan-2-yl)phenoxy)methyl)oxazol-2-yl)methanesulfonamide] here?
**A.** 0.631 µM

**Q.** For `CC(C)(c1ccc(OCc2ncc(S(C)(=O)=O)o2)cc1)c1cc(Cl)c(OCCCl)c(Cl)c1` [Compound A66], which IC50 [1] is on record?
**A.** 0.89 µM

**Q.** For `CC(C)(c1ccc(OCc2ccnc(NS(C)(=O)=O)n2)cc1)c1cc(Cl)c(OCCCl)c(Cl)c1` [Compound A74], which IC50 [1] is on record?
**A.** 0.658 µM

**Q.** For `CC(C)(c1ccc(OCc2ncc(S(C)(=O)=O)s2)cc1)c1cc(Cl)c(OCCCl)c(C#N)c1` [Compound A93], which IC50 [1] is on record?
**A.** 0.205 µM

**Q.** What does the source list for `CC(C)(c1ccc(OCc2ccnc(NS(C)(=O)=O)n2)cc1)c1cc(Cl)c(OCCCl)c(C#N)c1` [Compound A109, N-(4-((4-(2-(3-chloro-4-(2-chloroethoxy)-5-cyanophenyl)propan-2-yl)phenoxy)methyl)pyrimidin-2-yl)methanesulfonamide]?
**A.** log2 Fold Change ADAMTS1 ([2]; 7.5 μM): −3.96; log2 Fold Change CCND1 ([2]; 7.5 μM): −3.96; log2 Fold Change FKBP5 ([2]; 7.5 μM): −4.18; log2 Fold Change KLK2 ([2]; 7.5 μM): −5.07; log2 Fold Change KLK3 ([2]; 7.5 μM): −5.48; log2 Fold Change NCAPD3 ([2]; 7.5 μM): −3.8; log2 Fold Change NDRG1 ([2]; 7.5 μM): −4.47; log2 Fold Change NKX3-1 ([2]; 7.5 μM): −4.23; log2 Fold Change PMEPA1 ([2]; 7.5 μM): −3.93; log2 Fold Change PRR15L ([2]; 7.5 μM): −3.89; modulation of AR full-length and AR V7 driven genes ([2]; FIGS. 8A-8B and 9A-9B): can modulate AR full-length and AR V7 driven genes; IC50 [1]: 0.535 µM; anti-tumor response (VCaP tumors; in combination with enzalutamide): excellent anti-tumor response; anti-tumor response (VCaP tumors; monotherapy): excellent anti-tumor response; response in the androgen response genes FKBP5, TMPRSS2, KLK2, KLK3, and NKX3.1 (relative mRNA expression) ([3]; LNCaP cells, FIG. 6A): dose-dependent response; Log2Fold Change ACSL3 ([3]; LNCaP, 7.5 μM single agent): −3.62; Log2Fold Change AKAP12 ([3]; LNCaP, 7.5 μM single agent): −3.84; Log2Fold Change CDC6 ([3]; LNCaP, 7.5 μM single agent): −3.60; Log2Fold Change CENPN ([3]; LNCaP, 7.5 μM single agent): −2.13; Log2Fold Change EAF2 ([3]; LNCaP, 7.5 μM single agent): −3.81; Log2Fold Change ELL2 ([3]; LNCaP, 7.5 μM single agent): −3.05; Log2Fold Change ERRFI1 ([3]; LNCaP, 7.5 μM single agent): −2.76; Log2Fold Change FAM105A ([3]; LNCaP, 7.5 μM single agent): −2.78; Log2Fold Change FKBP5 ([3]; LNCaP, 7.5 μM single agent): −4.47; Log2Fold Change KLK2 ([3]; LNCaP, 7.5 μM single agent): −2.71; Log2Fold Change KLK3 ([3]; LNCaP, 7.5 μM single agent): −2.42; Log2Fold Change NCAPD3 ([3]; LNCaP, 7.5 μM single agent): −4.40; Log2Fold Change NDRG1 ([3]; LNCaP, 7.5 μM single agent): −4.17; Log2Fold Change NKX3-1 ([3]; LNCaP, 7.5 μM single agent): −2.28; Log2Fold Change PLPP1 ([3]; LNCaP, 7.5 μM single agent): −3.53; Log2Fold Change PMEPA1 ([3]; LNCaP, 7.5 μM single agent): −2.16; Log2Fold Change RHOU ([3]; LNCaP, 7.5 μM single agent): −3.03; Log2Fold Change SNAI2 ([3]; LNCaP, 7.5 μM single agent): −1.79; Log2Fold Change STEAP4 ([3]; LNCaP, 7.5 μM single agent): −4.22; Log2Fold Change TMPRSS2 ([3]; LNCaP, 7.5 μM single agent): −3.32; modulation of androgen receptor full-length driven genes ([3]; LNCaP, FIGS. 5A-5B and Table 4): can modulate androgen receptor0 full-length driven genes similar to enzalutamide

**Q.** With `Cc1cnc(NS(C)(=O)=O)nc1COc1ccc(C(C)(C)c2cc(Cl)c(OCCCl)c(C#N)c2)cc1` [Compound A122] as the compound, how does the IC50 [1] read?
**A.** 0.258 µM

**Q.** With `CCS(=O)(=O)Nc1nc(COc2ccc(C(C)(C)c3cc(Cl)c(OCCCl)c(C#N)c3)cc2)co1` [Compound A126] as the compound, how does the IC50 [1] read?
**A.** 0.629 µM

**Q.** How did the IC50 [1] turn out when `CCS(=O)(=O)Nc1nccc(COc2ccc(C(C)(C)c3cc(Cl)c(OCCCl)c(C#N)c3)cc2)n1` [Compound A131] was run?
**A.** 1.1 µM

**Q.** Which IC50 [1] does the source give for `CC(C)(c1ccc(OCc2nc(S(C)(=O)=O)cs2)cc1)c1cc(Cl)c(OCCCl)c(C#N)c1` [Compound A136] here?
**A.** 0.601 µM

**Q.** How did the IC50 [1] turn out when `C[C@H](Oc1ccc(C(C)(C)c2cc(Cl)c(OCCCl)c(Cl)c2)cc1)c1ccnc(NS(C)(=O)=O)n1` [Compound A170] was run?
**A.** 0.651 µM

**Q.** How did the “activity on gene expression in LNCaP” value ([3]; LNCaP cells, FIG. 7A-7B) turn out when `CC(O)c1cc(C(=O)N[C@@H](C)Cn2ccc(-c3ccc(C#N)c(Cl)c3)n2)[nH]n1` (some centres unmarked) [Darolutamide, darolutamide, reference compound] was run?
**A.** not very active

Reference: patent US20220202780A1, “PHARMACEUTICAL COMPOSITIONS AND COMBINATIONS COMPRISING INHIBITORS OF THE ANDROGEN RECEPTOR AND USES THEREOF” (ESSA Pharma, Inc., priority 2019, published 2022)
